According to ChEMBL document CHEMBL1122107, “Structure-antitumor activity relationships of 9-anilinoacridines using pattern recognition” (1982):
Several values for one entry are separate records, joined by “and”; a condition that tells them apart may be missing. Equal values may be shown once.

What follows are molecules tested on L1210 (assay: Tumor cell selectivity determined as maximal percent increase in life span (ILSmax) at LD10 dosage level in L1210 cells).
Type: functional, Mus musculus
`CN1CCN(c2ccc(Nc3c4ccccc4nc4cc([N+](=O)[O-])ccc34)cc2)CC1` gave an ILSmax of 25%. For `COc1cc(NS(C)(=O)=O)ccc1Nc1c2ccccc2nc2c(OCCO)cccc12`, the ILSmax was 105%. In the case of `CCCCCCS(=O)(=O)Nc1ccc(Nc2c3ccccc3nc3ccccc23)c(OC)c1`, the ILSmax was 66%. Molecule `CNc1ccc2c(Nc3ccc(OCCCC(=O)O)cc3)c3ccccc3nc2c1` has an ILSmax of 25%. `CCCC(=O)N(c1ccc(Nc2c3ccccc3nc3cc(NC(C)=O)ccc23)cc1)S(C)(=O)=O` showed an ILSmax of 95%. `CCNc1ccc(Nc2c3ccccc3nc3ccccc23)cc1` showed an ILSmax of 52%. In the case of `COc1ccc2[nH]c3ccccc3c(=Nc3ccc(NS(C)(=O)=O)cc3OC)c2c1`, the ILSmax was 35%. `CCc1ccccc1Nc1c2ccccc2nc2ccccc12` gave an ILSmax of 25%. `Cc1cccc2c(Nc3ccc(NS(C)(=O)=O)cc3)c3cc(N)c(Br)cc3nc12` showed an ILSmax of 120%. `c1ccc(Nc2c3ccccc3nc3ccccc23)cc1` was tested, and the ILSmax was 25%. `CC(=O)Nc1ccc2c(Nc3ccc(NS(C)(=O)=O)cc3)c3cccc(C)c3nc2c1C` showed an ILSmax of 60%. Molecule `CCCCCS(=O)(=O)Nc1ccc(Nc2c3ccccc3nc3ncccc23)c(OC)c1` has an ILSmax of 76%. `Cc1c([N+](=O)[O-])ccc2c(Nc3ccc(NS(C)(=O)=O)cc3)c3ccccc3nc12` showed an ILSmax of 70%. In the case of `CCCCCNS(=O)(=O)c1ccc(N=c2c3ccccc3[nH]c3cc(N)ccc23)cc1`, the ILSmax was 50%. `CCCNc1ccc(Nc2c3ccccc3nc3ccccc23)cc1` gave an ILSmax of 25%. `CCCCC(=O)N(c1ccc(Nc2c3ccccc3nc3c(C)cccc23)c(OC)c1)S(C)(=O)=O` gave an ILSmax of 50%. Molecule `COc1cc(NS(C)(=O)=O)ccc1Nc1c2ccccc2nc2c(Br)cccc12` has an ILSmax of 100%. `NCCCCCCS(=O)(=O)Nc1ccc(Nc2c3ccccc3nc3ccccc23)cc1` showed an ILSmax of 25%. Work on `CCCNC(=O)c1ccc(Nc2c3ccccc3nc3ccccc23)cc1` yielded an ILSmax of 25%. `O=C(Nc1ccc(Nc2c3ccccc3nc3ccccc23)cc1)OCC(O)CO` (stereo not drawn) showed an ILSmax of 70%. `Cc1ccc(Nc2c3ccccc3nc3ccccc23)cc1` gave an ILSmax of 90%. `COc1cc(NS(C)(=O)=O)ccc1Nc1c2ccc(C)cc2nc2cc([N+](=O)[O-])ccc12` was tested, and the ILSmax was 92%. In the case of `COc1ccc2c(Nc3ccc(NS(C)(=O)=O)cc3)c3ccc(OC)cc3nc2c1`, the ILSmax was 56%. For `COc1cc(NS(C)(=O)=O)ccc1Nc1c2ccccc2nc2cc([N+](=O)[O-])ccc12`, the ILSmax was 76%. For `CC(=O)Nc1ccc(Nc2c3ccccc3nc3ccccc23)cc1`, the ILSmax was 60%. Work on `COc1cc(NS(C)(=O)=O)ccc1Nc1c2ccccc2nc2c(C(=O)NCCO)cccc12` yielded an ILSmax of 100%. `Cc1ccc2c(Nc3ccc(NS(C)(=O)=O)cc3)c3ccccc3nc2c1C` showed an ILSmax of 55%. For `O=S(=O)(Nc1ccc(Nc2c3ccccc3nc3ccccc23)cc1)c1ccccc1`, the ILSmax was 75%. With `CS(=O)(=O)Nc1ccccc1Nc1c2ccccc2nc2ccccc12` the ILSmax was 25%. With `COc1cc(Nc2c3ccccc3nc3c([N+](=O)[O-])cccc23)ccc1NS(C)(=O)=O` the ILSmax was 25%. With `CN(C)C(=O)CCS(=O)(=O)Nc1ccc(Nc2c3ccccc3nc3ccccc23)cc1` the ILSmax was 63%. `NCCCCc1ccc(Nc2c3ccccc3nc3cc([N+](=O)[O-])ccc23)cc1` was tested, and the ILSmax was 25%. In the case of `CS(=O)(=O)Nc1ccc(N=c2c3ccccc3[nH]c3cc([N+](=O)[O-])ccc23)cn1`, the ILSmax was 72%. For `CS(=O)(=O)Nc1ccc(Nc2c3ccccc3nc3cc(O)ccc23)cc1`, the ILSmax was 72%. In the case of `Nc1ccc(S(=O)(=O)Nc2ccc(Nc3c4ccccc4nc4ccccc34)cc2)cc1`, the ILSmax was 100%. For `COc1cccc(Nc2c3ccccc3nc3ccccc23)c1`, the ILSmax was 25%. With `Nc1cccc(Nc2c3ccccc3nc3ccccc23)c1` the ILSmax was 50%. With `CC(C)CC(=O)Nc1ccc(Nc2c3ccccc3nc3ccccc23)cc1` the ILSmax was 105%. `CNc1ccc2c(Nc3ccc(NS(C)(=O)=O)cc3)c3cccc(C)c3nc2c1C` showed an ILSmax of 70%. `CS(=O)(=O)Nc1ccc(Nc2c3ccccc3nc3ccc(N)cc23)cc1` was tested, and the ILSmax was 50%. `CS(=O)(=O)Nc1ccc(Nc2c3ccccc3nc3c(C(N)=O)cccc23)cc1` was tested, and the ILSmax was 50%. In the case of `O=S(=O)(Cc1ccc(Nc2c3ccccc3nc3ccccc23)cc1)Nc1ccccn1`, the ILSmax was 98%. For `COc1cc(NS(C)(=O)=O)ccc1Nc1c2ccccc2nc2cc(Cl)ccc12`, the ILSmax was 99%. Work on `CC(=O)Nc1ccc2c(Nc3ccc(NS(C)(=O)=O)cc3)c3ccccc3nc2c1` yielded an ILSmax of 60%. `Nc1ccc2c(Nc3ccc(C(=O)O)cc3)c3ccccc3nc2c1` was tested, and the ILSmax was 25%. `Oc1cccc(Nc2c3ccccc3nc3ccccc23)c1` was tested, and the ILSmax was 25%. Work on `CCOc1cccc2c(Nc3ccc(NS(C)(=O)=O)cc3)c3ccccc3nc12` yielded an ILSmax of 85%. In the case of `O=C(O)CCc1ccc(NC(=O)Nc2ccc(N=c3c4ccccc4[nH]c4ccccc34)cc2)cc1`, the ILSmax was 125%. `CS(=O)(=O)Nc1ccc(Nc2c3ccccc3nc3cc(NC(=O)c4ccccc4)ccc23)cc1` showed an ILSmax of 25%. With `CCS(=O)(=O)Nc1ccc(Nc2c3ccccc3nc3cc(NC(C)=O)ccc23)cc1` the ILSmax was 115%. `CCCN(C)/N=N/c1ccc2c(Nc3ccc(NS(C)(=O)=O)cc3)c3ccccc3nc2c1` was tested, and the ILSmax was 98%. `Cc1cc(NS(C)(=O)=O)ccc1Nc1c2ccccc2nc2c(C(N)=O)cccc12` was tested, and the ILSmax was 68%. `CC(=O)N(c1ccc(Nc2c3ccc([N+](=O)[O-])cc3nc3c(C)cccc23)cc1)S(C)(=O)=O` was tested, and the ILSmax was 150%. Work on `COc1cc(NS(C)(=O)=O)ccc1Nc1c2ccccc2nc2cc(I)ccc12` yielded an ILSmax of 74%. With `CCCCCCS(=O)(=O)Nc1ccc(Nc2c3ccccc3nc3cc([N+](=O)[O-])ccc23)c(OC)c1` the ILSmax was 74%. Work on `NCCc1ccc(Nc2c3ccccc3nc3ccccc23)cc1` yielded an ILSmax of 25%. Molecule `CC(=O)NCCS(=O)(=O)Nc1ccc(Nc2c3ccc(I)cc3nc3ccc(N)cc23)cc1` has an ILSmax of 105%. For `CC(=O)Nc1ccc2c(=Nc3ccc(CCC(=O)O)cc3)c3ccccc3[nH]c2c1`, the ILSmax was 25%. Molecule `CCCCS(=O)(=O)Nc1ccc(Nc2c3ccccc3nc3c(OC)cccc23)c(OC)c1` has an ILSmax of 63%. `CS(=O)(=O)Nc1ccc(Nc2c3ccccc3nc3c(N)cccc23)cc1` was tested, and the ILSmax was 100%. `COc1cc(N)ccc1N=c1c2ccccc2[nH]c2c(C)cccc12` gave an ILSmax of 120%. With `NCCCS(=O)(=O)c1ccc(Nc2c3ccccc3nc3cc([N+](=O)[O-])ccc23)cc1` the ILSmax was 95%. In the case of `CCOC(=O)NNc1ccc(Nc2c3ccccc3nc3ccccc23)cc1`, the ILSmax was 75%. With `COc1cc(NS(C)(=O)=O)ccc1Nc1c2ccc([N+](=O)[O-])cc2nc2c(C)cccc12` the ILSmax was 72% and 113%. Molecule `COc1ccc(Nc2c3ccccc3nc3cc([N+](=O)[O-])ccc23)cc1` has an ILSmax of 30%. In the case of `Nc1ccc(S(=O)(=O)Nc2ccc(Nc3c4ccccc4nc4cc(Cl)ccc34)cc2)cc1`, the ILSmax was 50%. With `NCCc1ccc(NC(=O)Nc2ccc(N=c3c4ccccc4[nH]c4ccccc34)cc2)cc1` the ILSmax was 170%. Work on `O=C(O)CCc1cccc(Nc2c3ccccc3nc3ccccc23)c1` yielded an ILSmax of 25%. `O=C(O)CCCCCCc1ccc(Nc2c3ccccc3nc3ccccc23)cc1` showed an ILSmax of 74%. `COc1cc(NS(C)(=O)=O)ccc1N=c1c2ccccc2[nH]c2c(CN(C)C)cccc12` showed an ILSmax of 72%. Molecule `COc1cc(NS(C)(=O)=O)ccc1Nc1c2ccccc2nc2c1ccc1ncccc12` has an ILSmax of 83%. With `NCc1ccc(Nc2c3ccccc3nc3ccccc23)cc1` the ILSmax was 25%. `CC(=O)N(C)c1ccc(Nc2c3ccccc3nc3ccccc23)cc1` was tested, and the ILSmax was 50%.
